# According to patent publication US7462600B2, “Macrolides” (Pfizer Inc, priority 2004, dated 2008):
# Read-outs that look alike come from different tables or passages of the source.
# Assays:
# Assay type in all cases: cell-based
# [1] = test system: Streptococcus pyogenes 1079; experiment: MIC, microtiter broth dilution (NCCLS M100-S14), S. pyogenes 1079 (ermB)
# Method in brief: (§1)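 Microtiter broth dilution; interpretation per NCCLS M100-S14; endpoint = MIC. Stock: 40 mg/ml in DMSO.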
# [2] = test system: Streptococcus pneumoniae 1016; experiment: MIC, microtiter broth dilution (NCCLS M100-S14), S. pneumoniae 1016 (susceptible)
# Method in brief: as §1
# [3] = test system: Streptococcus pneumoniae 1175; conditions: microtiter broth dilution
# Method in brief: as §1
# [4] = test system: Streptococcus pneumoniae 1095; conditions: microtiter broth dilution
# Method in brief: as §1
# [5] = test system: Haemophilus influenzae 1218; experiment: MIC, microtiter broth dilution (NCCLS M100-S14), H. influenzae 1218 (susceptible)
# Method in brief: as §1
# [6] = S. pneumoniae 1016 (susceptible)
# [7] = H. influenzae 1218 (susceptible)
SMILES,MIC S. pyogenes 1079 ([1]; S. pyogenes 1079 (ermB)),"MIC S. pneumo. 1016 [2, 6]",MIC S. pneumo. 1175 ([3]; S. pneumoniae 1175 (mefA)),MIC S. pneumo. 1095 ([4]; S. pneumoniae 1095 (ermB)),"MIC H. influenzae 1218 [5, 7]",MIC S. pyogenes 1079 ([1]; Streptococcus pyogenes 1079),MIC S. pneumo. 1016 ([2]; Streptococcus pneumoniae 1016),MIC S. pneumo. 1175 ([3]; Streptococcus pneumoniae 1175),MIC S. pneumo. 1095 ([4]; Streptococcus pneumoniae 1095),MIC H. influenzae 1218 ([5]; Haemophilus influenzae 1218)
CCC1OC(=O)C(C)C(=O)C(C)C(OC2OC(C)CC(N(C)C)C2O)C(C)(OC)CC(C)C(=O)C(C)C2N(CC3CCCN3C(=O)c3cnc4ccccc4c3)C(=O)OC12C (centres unmarked) [12.05],>64.00 µg/mL,<0.06 µg/mL,1 µg/mL,1 µg/mL,4 µg/mL,,,,,
"CCC1OC(=O)C(C)C(=O)C(C)C(OC2OC(C)CC(N(C)C)C2O)C(C)(OC)CC(C)C(=O)C(C)C2N(C3CN(S(=O)(=O)c4ccc(-n5ccnc5)cc4)C3)C(=O)OC12C (centres unmarked) [Example 3.82, 3-descladinosyl-11,12-dideoxy-6-O-methyl-3-oxo-12,11-(oxycarbonyl-(1-(4-(1H-imidazol-1-yl)benzenesulfonyl)-azetidin-3-yl)-imino)erythromycin A]",,,,,,2 µg/mL,<0.06 µg/mL,<0.06 µg/mL,<0.06 µg/mL,0.25 µg/mL
CC[C@H]1OC(=O)[C@H](C)C(=O)[C@H](C)[C@@H](O[C@@H]2O[C@H](C)C[C@H](N(C)C)[C@H]2O)[C@](C)(OC)C[C@@H](C)C(=O)[C@H](C)[C@H]2N(CC3(O)CN(S(=O)(=O)c4cccc5cnccc45)C3)C(=O)O[C@]12C [7.14],>64.00 µg/mL,<0.06 µg/mL,0.12 µg/mL,1 µg/mL,0.25 µg/mL,,,,,
CC[C@H]1OC(=O)[C@H](C)C(=O)[C@H](C)[C@@H](O[C@@H]2O[C@H](C)C[C@H](N(C)C)[C@H]2O)[C@](C)(OC)C[C@@H](C)C(=O)[C@H](C)[C@H]2N(CC3(O)CN(Cc4ccc(-c5cncnc5)cc4)C3)C(=O)O[C@]12C [7.12],>64.00 µg/mL,<0.06 µg/mL,0.5 µg/mL,>64.00 µg/mL,2 µg/mL,,,,,
"CCC1OC(=O)C(C)C(=O)C(C)C(OC2OC(C)CC(N(C)C)C2O)C(C)(OC)CC(C)C(=O)C(C)C2N(C3CN(S(=O)(=O)c4cccc5cnccc45)C3)C(=O)OC12C (centres unmarked) [Example 3.04, 3-descladinosyl-11,12-dideoxy-6-O-methyl-3-oxo-12,11-(oxycarbonyl-(1-(isoquinoline-5-sulfonyl)-azetidin-3-yl)-imino)-erythromycin A]",,,,,,0.12 µg/mL,<0.06 µg/mL,<0.06 µg/mL,<0.06 µg/mL,0.25 µg/mL
"CCC1OC(=O)C(C)C(=O)C(C)C(OC2OC(C)CC(N(C)C)C2O)C(C)(OC)CC(C)C(=O)C(C)C2N(C3CN(S(=O)(=O)c4ccc(-c5csnn5)cc4)C3)C(=O)OC12C (centres unmarked) [Example 3.45, 3-descladinosyl-11,12-dideoxy-6-O-methyl-3-oxo-12,11-(oxycarbonyl-(1-(4-(1,2,3-thiadiazol-4-yl)benzenesulfonyl)-azetidin-3-yl)-imino)-erythromycin A]",,,,,,0.12 µg/mL,<0.06 µg/mL,<0.06 µg/mL,<0.06 µg/mL,0.25 µg/mL
"CCC1OC(=O)C(C)C(=O)C(C)C(OC2OC(C)CC(N(C)C)C2O)C(C)(OC)CC(C)C(=O)C(C)C2N(C3CN(Cc4cc(=O)[nH]c5ccc(Cl)cc45)C3)C(=O)OC12C (centres unmarked) [Example 1.36, (6-chloro-1H-quinolin-2-on-4-yl)methyl]",,,,,,8 µg/mL,<0.06 µg/mL,0.12 µg/mL,<0.06 µg/mL,0.5 µg/mL
CCC1OC(=O)C(C)C(=O)C(C)C(OC2OC(C)CC(N(C)C)C2O)C(C)(OC)CC(C)C(=O)C(C)C2N(C3CN(S(=O)(=O)c4ccc(-c5ccc(Cl)nn5)cc4)C3)C(=O)OC12C (centres unmarked) [Example 3.78],,,,,,64 µg/mL,<0.06 µg/mL,<0.06 µg/mL,<0.06 µg/mL,4 µg/mL
"CCC1OC(=O)C(C)C(=O)C(C)C(OC2OC(C)CC(N(C)C)C2O)C(C)(OC)CC(C)C(=O)C(C)C2N(C3CN(Cc4ccc(C#N)cc4)C3)C(=O)OC12C (centres unmarked) [Example 1.14, 4-cyanobenzyl]",,,,,,>64.00 µg/mL,<0.06 µg/mL,0.5 µg/mL,1 µg/mL,0.25 µg/mL
CCC1OC(=O)C(C)C(=O)C(C)C(OC2OC(C)CC(N(C)C)C2O)C(C)(OC)CC(C)C(=O)C(C)C2N(CC3CN(Cc4cccc5nccnc45)C3)C(=O)OC12C (centres unmarked) [4.17],,,,,,64 µg/mL,<0.06 µg/mL,0.12 µg/mL,0.5 µg/mL,0.25 µg/mL
CCC1OC(=O)C(C)C(=O)C(C)C(OC2OC(C)CC(N(C)C)C2O)C(C)(OC)CC(C)C(=O)C(C)C2N(CC3CCCN3C(=O)c3cnc4ccccc4n3)C(=O)OC12C.O=CO (centres unmarked) [10.21],>64.00 µg/mL,<0.06 µg/mL,0.12 µg/mL,<0.06 µg/mL,2 µg/mL,,,,,
"CCC1OC(=O)C(C)C(=O)C(C)C(OC2OC(C)CC(N(C)C)C2O)C(C)(OC)CC(C)C(=O)C(C)C2N(C3CN(S(=O)(=O)c4cccc(-c5cccnn5)c4)C3)C(=O)OC12C (centres unmarked) [Example 3.72, 3-descladinosyl-11,12-dideoxy-4-O-methyl-3-oxo-12,11-(oxycarbonyl-(1-(3-(pyridazin-3-yl)benzenesulfonyl)-azetidin-3-yl)-imino)erythromycin A]",,,,,,1 µg/mL,<0.06 µg/mL,<0.06 µg/mL,<0.06 µg/mL,1 µg/mL
"CCC1OC(=O)C(C)C(=O)C(C)C(OC2OC(C)CC(N(C)C)C2O)C(C)(OC)CC(C)C(=O)C(C)C2N(C3CN(C(C)c4ccnc5ncccc45)C3)C(=O)OC12C (stereo not drawn) [Example 1.23, 3-descladinosyl-11,12-dideoxy-6-O-methyl-3-oxo-12,11-(oxycarbonyl-(1-(1S-(1,8-naphthyridin4-yl)-ethyl)-azetidin-3-yl)-imino)-erythromycin A]",,,,,,16 µg/mL,<0.06 µg/mL,0.25 µg/mL,<0.06 µg/mL,0.5 µg/mL
